Blank lines part the entries; values can stand above or below the compound they belong to.
Columns and labels:
[1] = biological target: Cyclin-dependent kinase 17 (Homo sapiens) (UniProt Q00537); experiment: Selectivity interaction (KinomeScan (DiscoverX)) EUB0000666a CDK17; settings: at 10 µM
[2] = biological target: T1, Serine/threonine-protein kinase Sgk3 (Homo sapiens) (UniProt Q96BR1); experiment: Selectivity interaction (SelectScreen profiling (Invitrogen)) EUB0000607a SGK3; settings: at 2 µM
T1 sequence (whole entry): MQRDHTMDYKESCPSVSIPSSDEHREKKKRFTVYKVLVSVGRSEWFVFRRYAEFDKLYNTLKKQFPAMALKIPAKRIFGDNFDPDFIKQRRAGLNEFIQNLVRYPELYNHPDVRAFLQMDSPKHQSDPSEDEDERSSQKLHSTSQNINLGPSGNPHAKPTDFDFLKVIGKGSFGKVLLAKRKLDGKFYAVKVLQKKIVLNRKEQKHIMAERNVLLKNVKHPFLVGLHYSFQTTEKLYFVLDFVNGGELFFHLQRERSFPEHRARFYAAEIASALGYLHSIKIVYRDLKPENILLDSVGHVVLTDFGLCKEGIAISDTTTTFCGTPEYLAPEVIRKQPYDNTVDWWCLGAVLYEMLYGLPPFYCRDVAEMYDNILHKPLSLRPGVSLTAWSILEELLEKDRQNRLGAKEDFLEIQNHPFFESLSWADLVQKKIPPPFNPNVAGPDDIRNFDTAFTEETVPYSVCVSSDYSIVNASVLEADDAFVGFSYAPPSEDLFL

[3] = biological target: Mitogen-activated protein kinase kinase kinase kinase 4 (Homo sapiens, UniProt O95819); experiment: Selectivity interaction (SelectScreen profiling (Invitrogen)) EUB0000607a MAP4K4; settings: at 2 µM
[4] = biological target: Cyclin-dependent kinase 18 (Homo sapiens) (UniProt Q07002); experiment: Selectivity interaction (ActivX KiNativ screen (kinase selectivity in THP-1 cell lysates)) EUB0000639a CDK18; assay type: subcellular; settings: lysate, at 0.04 µM
[5] = biological target: T2, Serine/threonine-protein kinase TAO1 (Homo sapiens) (UniProt Q7L7X3); experiment: Selectivity interaction (ActivX KiNativ screen (kinase selectivity in THP-1 cell lysates)) EUB0000639a TAOK1; assay type: subcellular; settings: lysate
T2 sequence (whole entry): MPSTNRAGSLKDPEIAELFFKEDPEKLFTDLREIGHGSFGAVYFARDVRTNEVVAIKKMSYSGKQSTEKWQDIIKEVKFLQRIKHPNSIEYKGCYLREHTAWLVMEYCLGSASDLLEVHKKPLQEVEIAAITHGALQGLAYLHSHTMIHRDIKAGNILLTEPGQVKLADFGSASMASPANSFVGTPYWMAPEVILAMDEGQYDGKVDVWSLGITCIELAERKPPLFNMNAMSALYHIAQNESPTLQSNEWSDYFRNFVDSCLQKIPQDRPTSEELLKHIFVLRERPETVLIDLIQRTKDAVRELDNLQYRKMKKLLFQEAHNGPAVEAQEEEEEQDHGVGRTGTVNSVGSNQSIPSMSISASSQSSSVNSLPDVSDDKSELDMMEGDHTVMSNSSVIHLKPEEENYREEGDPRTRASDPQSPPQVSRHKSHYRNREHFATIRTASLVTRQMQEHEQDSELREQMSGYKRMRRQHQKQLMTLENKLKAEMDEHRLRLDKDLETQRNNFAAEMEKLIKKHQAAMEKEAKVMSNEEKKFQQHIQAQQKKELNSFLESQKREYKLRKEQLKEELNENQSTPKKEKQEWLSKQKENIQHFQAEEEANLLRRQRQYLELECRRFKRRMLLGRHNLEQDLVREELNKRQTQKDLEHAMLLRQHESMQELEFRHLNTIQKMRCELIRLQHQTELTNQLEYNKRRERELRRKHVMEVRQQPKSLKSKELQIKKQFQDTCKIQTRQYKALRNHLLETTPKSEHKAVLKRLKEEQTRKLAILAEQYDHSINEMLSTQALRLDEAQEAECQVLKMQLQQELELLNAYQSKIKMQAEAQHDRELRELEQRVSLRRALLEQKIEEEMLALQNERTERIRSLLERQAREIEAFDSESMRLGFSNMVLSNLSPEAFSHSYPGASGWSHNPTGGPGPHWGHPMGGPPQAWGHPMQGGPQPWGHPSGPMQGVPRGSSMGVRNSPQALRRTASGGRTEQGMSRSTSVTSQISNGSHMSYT

[6] = biological target: T3, Protein kinase C iota type (Homo sapiens) (UniProt P41743); experiment: Selectivity interaction (ActivX KiNativ screen (kinase selectivity in THP-1 cell lysates)) EUB0000639a PRKCI; assay type: subcellular; settings: lysate, at 0.01 µM
T3 sequence (whole entry): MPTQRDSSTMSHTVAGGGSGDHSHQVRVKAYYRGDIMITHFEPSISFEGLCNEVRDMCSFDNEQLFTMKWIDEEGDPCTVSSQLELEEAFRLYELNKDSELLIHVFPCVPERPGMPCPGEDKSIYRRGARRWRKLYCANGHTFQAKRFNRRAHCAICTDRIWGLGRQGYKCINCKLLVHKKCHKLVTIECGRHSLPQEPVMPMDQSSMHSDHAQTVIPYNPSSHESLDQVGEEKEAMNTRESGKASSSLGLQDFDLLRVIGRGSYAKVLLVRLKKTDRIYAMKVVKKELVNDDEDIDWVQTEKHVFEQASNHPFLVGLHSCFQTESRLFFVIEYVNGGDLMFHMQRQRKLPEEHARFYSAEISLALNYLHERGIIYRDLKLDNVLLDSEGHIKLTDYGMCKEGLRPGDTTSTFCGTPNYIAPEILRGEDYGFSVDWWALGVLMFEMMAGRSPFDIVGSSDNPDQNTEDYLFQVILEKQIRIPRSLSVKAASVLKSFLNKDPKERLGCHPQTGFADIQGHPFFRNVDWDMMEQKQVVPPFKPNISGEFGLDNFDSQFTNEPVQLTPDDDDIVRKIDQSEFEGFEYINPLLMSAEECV

[7] = biological target: Cyclin-dependent kinase 2/cyclin E (Homo sapiens) (UniProt P24864+P24941+O96020); experiment: (§1) Selectivity interaction (Millipore kinase profiler) EUB0000124b CDK2; assay type: protein-complex assay; settings: at 10 µM
[8] = biological target: Cyclin-dependent kinase 2/cyclin A (Homo sapiens) (UniProt P24941+P20248+P78396); experiment: as §1; assay type: protein-complex assay; settings: at 10 µM
[9] = biological target: Serine/threonine-protein kinase 33 (Homo sapiens) (UniProt Q9BYT3); experiment: Selectivity interaction (KinomeScan (DiscoverX)) EUB0000655a STK33; settings: at 10 µM
[10] = biological target: 1-phosphatidylinositol 3-phosphate 5-kinase (Homo sapiens) (UniProt Q9Y2I7); experiment: Selectivity interaction (Kinase panel (KiNativ target engagement assay in Jurkat cells)) EUB0001635a PIKFYVE; assay type: cell-based; settings: Selectivity number of off-targets 0.0, Selectivity number of targets 233.0, Source Knowledge https://www.sciencedirect.com/science/article/pii/S2451945619300674?via%3Dihub, at 1 µM
[11] = biological target: Serine/threonine-protein kinase mTOR (Homo sapiens, UniProt P42345); experiment: Selectivity interaction (KinomeScan (DiscoverX)) EUB0000618a MTOR; settings: at 10 µM

Sequence of Cyclin-dependent kinase 18 (Homo sapiens) (Q07002 whole entry): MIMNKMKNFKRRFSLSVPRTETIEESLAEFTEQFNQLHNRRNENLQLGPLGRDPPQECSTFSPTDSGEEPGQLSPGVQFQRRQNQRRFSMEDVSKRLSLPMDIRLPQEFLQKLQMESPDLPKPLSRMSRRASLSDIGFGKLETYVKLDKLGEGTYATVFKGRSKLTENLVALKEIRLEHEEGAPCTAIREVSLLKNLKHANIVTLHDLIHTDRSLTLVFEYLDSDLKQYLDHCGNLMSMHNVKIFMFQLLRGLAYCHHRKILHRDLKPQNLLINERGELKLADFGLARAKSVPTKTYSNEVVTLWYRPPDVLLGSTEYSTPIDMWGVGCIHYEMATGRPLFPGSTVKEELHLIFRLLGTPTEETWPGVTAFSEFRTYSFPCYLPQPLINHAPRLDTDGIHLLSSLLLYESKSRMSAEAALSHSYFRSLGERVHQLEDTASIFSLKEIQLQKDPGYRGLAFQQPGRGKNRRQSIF
Sequence of Serine/threonine-protein kinase 33 (Homo sapiens) (Q9BYT3 whole entry, looked up): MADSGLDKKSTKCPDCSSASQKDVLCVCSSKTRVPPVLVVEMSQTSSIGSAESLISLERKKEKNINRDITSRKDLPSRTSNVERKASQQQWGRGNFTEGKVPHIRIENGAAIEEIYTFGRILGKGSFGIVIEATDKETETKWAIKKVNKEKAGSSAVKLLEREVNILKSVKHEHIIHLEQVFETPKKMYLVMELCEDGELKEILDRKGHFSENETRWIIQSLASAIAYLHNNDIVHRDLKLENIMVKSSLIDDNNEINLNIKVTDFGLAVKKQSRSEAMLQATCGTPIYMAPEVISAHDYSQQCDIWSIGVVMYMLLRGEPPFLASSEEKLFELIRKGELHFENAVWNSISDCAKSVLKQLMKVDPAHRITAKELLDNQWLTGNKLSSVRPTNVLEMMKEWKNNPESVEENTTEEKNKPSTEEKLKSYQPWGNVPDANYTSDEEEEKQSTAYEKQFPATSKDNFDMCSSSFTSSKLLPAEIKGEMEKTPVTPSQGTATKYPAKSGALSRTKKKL
Sequence of 1-phosphatidylinositol 3-phosphate 5-kinase (Homo sapiens) (Q9Y2I7 whole entry): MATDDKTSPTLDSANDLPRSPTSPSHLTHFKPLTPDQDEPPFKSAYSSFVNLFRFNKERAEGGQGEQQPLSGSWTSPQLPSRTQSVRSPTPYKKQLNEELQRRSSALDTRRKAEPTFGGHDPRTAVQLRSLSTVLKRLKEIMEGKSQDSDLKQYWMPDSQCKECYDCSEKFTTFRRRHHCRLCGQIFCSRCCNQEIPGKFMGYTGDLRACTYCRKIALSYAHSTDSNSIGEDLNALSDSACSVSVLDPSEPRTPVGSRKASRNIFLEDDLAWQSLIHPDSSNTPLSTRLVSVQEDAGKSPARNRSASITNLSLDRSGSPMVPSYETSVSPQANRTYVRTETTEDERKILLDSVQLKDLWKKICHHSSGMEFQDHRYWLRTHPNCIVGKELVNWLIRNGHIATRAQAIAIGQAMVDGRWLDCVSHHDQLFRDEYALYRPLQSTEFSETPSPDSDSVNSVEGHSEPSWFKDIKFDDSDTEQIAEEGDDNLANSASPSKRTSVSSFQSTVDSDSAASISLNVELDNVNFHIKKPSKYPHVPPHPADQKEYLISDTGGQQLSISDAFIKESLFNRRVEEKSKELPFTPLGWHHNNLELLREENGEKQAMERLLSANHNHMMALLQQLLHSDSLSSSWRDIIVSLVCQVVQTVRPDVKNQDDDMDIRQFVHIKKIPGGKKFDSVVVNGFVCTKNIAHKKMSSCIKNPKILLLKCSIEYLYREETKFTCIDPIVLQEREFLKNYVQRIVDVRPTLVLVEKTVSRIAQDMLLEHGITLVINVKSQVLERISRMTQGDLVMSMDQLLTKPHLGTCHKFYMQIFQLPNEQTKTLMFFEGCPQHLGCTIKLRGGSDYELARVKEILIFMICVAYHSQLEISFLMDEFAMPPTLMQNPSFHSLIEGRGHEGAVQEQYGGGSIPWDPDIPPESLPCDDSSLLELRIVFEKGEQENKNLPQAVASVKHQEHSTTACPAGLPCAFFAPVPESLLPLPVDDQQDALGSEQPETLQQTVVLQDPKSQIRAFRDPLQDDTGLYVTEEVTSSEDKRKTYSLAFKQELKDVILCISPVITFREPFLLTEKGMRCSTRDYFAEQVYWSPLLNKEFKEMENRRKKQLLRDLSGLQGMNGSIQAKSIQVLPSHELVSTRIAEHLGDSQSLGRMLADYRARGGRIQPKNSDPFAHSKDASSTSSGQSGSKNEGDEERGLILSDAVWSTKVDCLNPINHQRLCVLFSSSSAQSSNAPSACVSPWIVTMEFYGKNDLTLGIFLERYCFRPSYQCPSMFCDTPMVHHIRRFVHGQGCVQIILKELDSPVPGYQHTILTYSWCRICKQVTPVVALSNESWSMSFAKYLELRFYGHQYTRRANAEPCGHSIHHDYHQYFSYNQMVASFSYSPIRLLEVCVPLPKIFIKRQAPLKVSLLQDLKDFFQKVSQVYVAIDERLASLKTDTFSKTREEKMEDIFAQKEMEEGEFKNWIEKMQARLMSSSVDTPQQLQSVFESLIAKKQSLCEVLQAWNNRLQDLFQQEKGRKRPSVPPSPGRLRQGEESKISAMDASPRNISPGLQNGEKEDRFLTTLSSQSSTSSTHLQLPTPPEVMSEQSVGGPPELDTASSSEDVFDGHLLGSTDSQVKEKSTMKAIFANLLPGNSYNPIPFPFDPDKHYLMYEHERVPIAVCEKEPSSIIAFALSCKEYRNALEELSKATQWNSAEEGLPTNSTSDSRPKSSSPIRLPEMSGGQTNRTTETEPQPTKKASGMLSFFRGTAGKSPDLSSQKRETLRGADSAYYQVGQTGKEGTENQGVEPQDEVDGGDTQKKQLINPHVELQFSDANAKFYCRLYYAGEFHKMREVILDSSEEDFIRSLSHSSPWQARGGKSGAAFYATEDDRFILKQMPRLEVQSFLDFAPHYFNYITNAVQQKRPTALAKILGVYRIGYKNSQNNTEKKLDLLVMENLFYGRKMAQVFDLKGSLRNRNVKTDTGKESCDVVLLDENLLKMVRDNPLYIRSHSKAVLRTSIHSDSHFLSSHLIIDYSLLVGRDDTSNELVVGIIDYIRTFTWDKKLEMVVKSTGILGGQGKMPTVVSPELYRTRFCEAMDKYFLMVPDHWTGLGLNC
Sequence of Mitogen-activated protein kinase kinase kinase kinase 4 (O95819 2-1239 limits assumed): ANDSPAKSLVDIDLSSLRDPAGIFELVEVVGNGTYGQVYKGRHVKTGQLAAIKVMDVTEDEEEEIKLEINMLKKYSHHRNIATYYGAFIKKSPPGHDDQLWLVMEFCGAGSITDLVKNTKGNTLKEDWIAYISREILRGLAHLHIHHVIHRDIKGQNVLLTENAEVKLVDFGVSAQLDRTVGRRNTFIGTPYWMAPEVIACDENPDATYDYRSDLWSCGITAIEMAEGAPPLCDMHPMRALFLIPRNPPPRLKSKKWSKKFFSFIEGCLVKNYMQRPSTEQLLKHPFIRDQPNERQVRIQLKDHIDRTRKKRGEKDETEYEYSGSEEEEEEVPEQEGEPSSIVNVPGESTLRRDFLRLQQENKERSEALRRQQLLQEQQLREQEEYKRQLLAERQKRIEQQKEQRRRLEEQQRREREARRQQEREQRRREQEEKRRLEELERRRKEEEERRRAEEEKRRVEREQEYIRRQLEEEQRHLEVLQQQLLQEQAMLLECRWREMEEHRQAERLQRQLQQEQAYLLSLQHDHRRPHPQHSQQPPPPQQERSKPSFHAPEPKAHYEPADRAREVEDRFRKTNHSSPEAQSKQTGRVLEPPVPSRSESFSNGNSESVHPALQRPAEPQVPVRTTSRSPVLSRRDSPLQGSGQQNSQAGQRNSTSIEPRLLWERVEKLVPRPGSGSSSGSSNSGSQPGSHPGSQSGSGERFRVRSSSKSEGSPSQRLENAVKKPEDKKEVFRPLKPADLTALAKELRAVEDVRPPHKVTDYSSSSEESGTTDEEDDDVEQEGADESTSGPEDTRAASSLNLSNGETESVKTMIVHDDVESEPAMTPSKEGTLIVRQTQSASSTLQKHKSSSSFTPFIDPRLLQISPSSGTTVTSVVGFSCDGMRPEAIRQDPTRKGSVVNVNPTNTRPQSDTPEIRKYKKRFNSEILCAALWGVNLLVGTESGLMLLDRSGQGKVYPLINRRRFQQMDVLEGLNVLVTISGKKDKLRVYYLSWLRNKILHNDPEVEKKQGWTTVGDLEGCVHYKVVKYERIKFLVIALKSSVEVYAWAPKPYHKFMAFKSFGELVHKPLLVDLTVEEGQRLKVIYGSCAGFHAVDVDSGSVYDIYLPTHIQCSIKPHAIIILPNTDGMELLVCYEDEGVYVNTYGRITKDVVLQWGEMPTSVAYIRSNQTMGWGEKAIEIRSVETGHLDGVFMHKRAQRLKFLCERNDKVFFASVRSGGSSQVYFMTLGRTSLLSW
Sequence of Cyclin-dependent kinase 17 (Homo sapiens) (Q00537 whole entry, looked up): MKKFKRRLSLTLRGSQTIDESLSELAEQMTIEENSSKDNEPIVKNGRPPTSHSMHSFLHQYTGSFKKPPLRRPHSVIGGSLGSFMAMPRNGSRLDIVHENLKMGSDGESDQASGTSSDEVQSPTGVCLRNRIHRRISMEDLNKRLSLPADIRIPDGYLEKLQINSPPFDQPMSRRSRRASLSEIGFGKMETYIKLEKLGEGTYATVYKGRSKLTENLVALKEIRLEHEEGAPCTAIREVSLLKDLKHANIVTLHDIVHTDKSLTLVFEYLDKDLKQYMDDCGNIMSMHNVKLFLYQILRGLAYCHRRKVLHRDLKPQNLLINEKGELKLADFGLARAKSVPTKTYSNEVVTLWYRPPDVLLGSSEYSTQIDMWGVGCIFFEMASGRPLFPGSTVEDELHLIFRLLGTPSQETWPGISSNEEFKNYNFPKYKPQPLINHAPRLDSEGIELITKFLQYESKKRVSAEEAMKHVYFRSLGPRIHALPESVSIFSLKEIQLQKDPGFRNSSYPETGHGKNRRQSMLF

Structure (SMILES): O=C(NOC[C@H](O)CO)c1ccc(F)c(F)c1Nc1ccc(I)cc1F
- % of control [1]: 95%

Structure (SMILES): CNC(=O)Nc1ccc(-c2nc(N3CC4CCC(C3)O4)c3cnn(C4CCC5(CC4)OCCO5)c3n2)cc1
- % of inhibition [2]: 3%
- % of inhibition [3]: 10%

- % of inhibition [4]: 1.7%
- % of inhibition ([5]; at 0.01 µM): 6.6%
- % of inhibition ([5]; at 0.04 µM): -1.6%
- % of inhibition ([5]; at 0.2 µM): 6.9%
- % of inhibition ([5]; at 1 µM): 12.9%
- % of inhibition ([5]; at 5 µM): 41.7%
- % of inhibition [6]: -6.4%
Structure (SMILES): CC[C@@H]1[C@H](F)C(=O)N[C@@H]1COc1nccc2cc(C(N)=O)c(OC)cc12 [ZIMLOVISERTIB]

- % of control [7]: 104%
- % of control [8]: 101%
Structure (SMILES): CC(=O)Nc1cccc(-n2c(=O)n(C3CC3)c(=O)c3c(Nc4ccc(I)cc4F)n(C)c(=O)c(C)c32)c1

Structure (SMILES): CN(C)CCOc1ccc(-c2nc(-c3ccncc3)c(-c3ccc4c(c3)CC/C4=N\O)[nH]2)cc1
- % of control [9]: 88%

Structure (SMILES): C=CC(=O)Nc1ccc(C(=O)Nc2[nH]nc3c2CN(C(=O)N[C@H](CN(C)C)c2ccccc2)C3(C)C)cc1
- % of engagement [10]: -3.5%

Structure (SMILES): O[C@H]1CC[C@H](Nc2ncc3nc(Nc4c(F)cc(F)cc4F)n([C@H]4CCOC4)c3n2)CC1
- % of control [11]: 68%

Reference: ChEMBL document CHEMBL5465560, “Selectivity Literature for EUbOPEN Chemogenomic Library” (2024)
